{
  "source": "patent US12558376B2",
  "about": "“Tissue repair by activated cells” (TECHNION RESEARCH & DEVELOPMENT FOUNDATION LIMITED, priority 2018, dated 2026)",
  "key": {"[1]": {"test_system": "mesenchymal stem cells (MSCs)", "assay": "Cytokine array of MSC conditioned medium (secretome)", "format": "cell-based, human", "conditions": "gemcitabine-activated vs untreated MSCs", "description": "Human bone marrow MSCs (LONZA, Switzerland) were cultured in minimum essential medium-alpha (αMEM) supplemented with 10% FBS 1% L-glutamine, 1% sodium-pyruvate, and 1% streptomycin. Medium was replaced every 3 days, and cells were maintained in culture for up to 7 passages.\nAfter 72 hours, CM was collected.\nThe signals corresponding to each factor in the array were quantified by densitometry analysis."}, "PANC1 tumors": {"test_system": "PANC1 tumors", "assay": "Subcutaneous PANC1 tumors treated with gemcitabine: MSC homing", "format": "in vivo", "conditions": "PANC1 tumors in SCID mice, gemcitabine 500 mg/kg, after 72 hours; for MSC homing to tumors and proximity to CSCs (immunostaining): vs untreated control", "description": "Eight-to-ten-week-old SCID mice were subcutaneously implanted with PANC1 cells (n=5 mice/group). […] Nuclei were stained with DAPI (blue). Red arrows represent CSCs whereas white arrows represent MSCs. Scale bar, 100 μm. FIG. 1B: Right Left side is a graph showing the distance between MSCs and CSCs as was measured and plotted (n>15 fields/group) and FIG. 1B left-right side is a graph showing the percentage of MSCs in tumor single cell suspensions was quantified by flow cytometry. […] After 3 days, the percentage of TICs in culture was assessed by flow cytometry. The use of animals and experimental protocols were approved by the Animal Care and Use Committee of the Technion. Human PANC1 (5×10^6 cells) were subcutaneously injected into the flank of eight-to-ten-week-old CB.17 female SCID mice (Harlan, Israel). Tumor size was assessed regularly with Vernier calipers using the formula width^2×length×0.5. […] Tumors or […] were embedded in […], Japan) and subsequently frozen at -80° C. […] Sections were fixed in cold acetone for 15 minutes. CSCs were stained with PE-conjugated antibodies against human prominin-1 (CD133, 1:250, Macs MiltenyiBiotec). […] Tumor sections were analyzed with a camera attached to an inverted microscope (Leica CTR 6000) using Leica Application suite Version 3.4.0 software or a LSM 700 Zeiss confocal microscope (Zeiss, Germany). Nuclei were stained with DAPI (Electron Microscopy Sciences, PA, USA)."}},
  "data": [
    {"compound": "Nc1ccn([C@@H]2O[C@H](CO)[C@@H](O)C2(F)F)c(=O)n1", "note": "[gemcitabine]", "values": [
      {"measurement": "CXCL10 secretion in conditioned medium of MSCs", "setting": "[1]", "value": "highly elevated"},
      {"measurement": "recruitment of MSCs to pancreatic tumors (percentage of MSCs, flow cytometry)", "setting": "PANC1 tumors", "value": "massive recruitment of MSCs"},
      {"measurement": "MSC homing to tumors and proximity to CSCs (immunostaining)", "setting": "PANC1 tumors", "value": "MSCs home to tumors and locate in close proximity to CSCs"},
      {"measurement": "MSC homing to tumors and proximity to CSCs (immunostaining)", "setting": "PANC1 tumors; listed as Gemcitabine", "value": "promotes MSCs homing to tumors"}
    ]}
  ]
}
